Source: the OligoGym collection
HELM strings list units from the 5' end as sugar, base in round brackets, then linkage (d deoxyribose, r ribose, m 2'-O-methyl, p phosphodiester). Strings are as the collection lists them; they lack the last nucleoside at the 3' end of the tested compound. [moe] = 2'-O-(2-methoxyethyl) (MOE); [sp] = phosphorothioate linkage; [m5C] = 5-methylcytosine

Biological target: UBE3A-ATS
Test: mouse, dose not given
Settings: ASO

Row | Substance | 3 h FOB score [score 0-7]
1 | RNA1{[moe](A)[sp].[moe](T)p.[moe](G)p.[moe](T)p.[moe](A)p.d(T)[sp].d([m5C])[sp].d(A)[sp].d(G)[sp].d(G)[sp].d([m5C])[sp].d(A)[sp].d(A)[sp].d([m5C])[sp].d(A)[sp].[moe](G)p.[moe](A)p.[moe](A)[sp].[moe](T)}$$$$ (last 3' nucleoside missing) | 5
2 | RNA1{[moe](A)[sp].[moe](T)p.[moe](G)p.[moe](T)p.[moe](G)p.[moe]([m5C])p.d(A)[sp].d(T)[sp].d(A)[sp].d([m5C])[sp].d([m5C])[sp].d([m5C])[sp].d(A)[sp].d(G)[sp].d(G)[sp].d(G)[sp].[moe](T)p.[moe](A)[sp].[moe](G)}$$$$ (last 3' nucleoside missing) | 3.5
3 | RNA1{[moe](A)[sp].[moe](T)p.[moe](G)p.[moe](T)p.[moe](G)p.d(G)[sp].d(G)[sp].d([m5C])[sp].d([m5C])[sp].d(T)[sp].d([m5C])[sp].d(T)[sp].d(A)[sp].d(T)[sp].d(T)[sp].[moe](A)p.[moe](A)p.[moe](G)[sp].[moe](A)}$$$$ (last 3' nucleoside missing) | 0.7
4 | RNA1{[moe](A)[sp].[moe](T)p.[moe](G)p.[moe](T)p.[moe](G)p.d([m5C])[sp].d(A)[sp].d(T)[sp].d(A)[sp].d([m5C])[sp].d([m5C])[sp].d([m5C])[sp].d(A)[sp].d(G)[sp].d(G)[sp].[moe](G)p.[moe](T)p.[moe](A)[sp].[moe](G)}$$$$ (last 3' nucleoside missing) | 4
5 | RNA1{[moe](A)[sp].[moe](T)p.[moe](G)p.[moe](T)p.d(G)[sp].d([m5C])[sp].d(A)[sp].d(T)[sp].d(A)[sp].d([m5C])[sp].d([m5C])[sp].d([m5C])[sp].d(A)[sp].d(G)[sp].[moe](G)p.[moe](G)p.[moe](T)p.[moe](A)[sp].[moe](G)}$$$$ (last 3' nucleoside missing) | 1.8
6 | RNA1{[moe](A)[sp].[moe](T)p.[moe](T)p.[moe](G)p.[moe](A)p.d([m5C])[sp].d(A)[sp].d([m5C])[sp].d([m5C])[sp].d(T)[sp].d([m5C])[sp].d([m5C])[sp].d(A)[sp].d(A)[sp].d([m5C])[sp].[moe](T)p.[moe](G)p.[moe](T)[sp].[moe](A)}$$$$ (last 3' nucleoside missing) | 0.7
7 | RNA1{[moe](A)[sp].[moe](T)p.[moe](T)p.[moe](G)p.[moe](G)p.[moe](T)p.d([m5C])[sp].d(A)[sp].d(T)[sp].d([m5C])[sp].d(T)[sp].d([m5C])[sp].d(G)[sp].d(G)[sp].d(G)[sp].d(T)[sp].[moe](A)p.[moe](T)[sp].[moe](A)}$$$$ (last 3' nucleoside missing) | 4
8 | RNA1{[moe](A)[sp].[moe](T)p.[moe](T)p.[moe](G)p.[moe](G)p.d(T)[sp].d([m5C])[sp].d(A)[sp].d(T)[sp].d([m5C])[sp].d(T)[sp].d([m5C])[sp].d(G)[sp].d(G)[sp].d(G)[sp].[moe](T)p.[moe](A)p.[moe](T)[sp].[moe](A)}$$$$ (last 3' nucleoside missing) | 2.8
9 | RNA1{[moe](A)[sp].[moe](T)p.[moe](T)p.[moe](G)p.[moe](T)p.d([m5C])[sp].d([m5C])[sp].d(T)[sp].d([m5C])[sp].d([m5C])[sp].d(T)[sp].d(G)[sp].d(G)[sp].d(T)[sp].d(A)[sp].[moe](A)p.[moe]([m5C])p.[moe]([m5C])[sp].[moe](A)}$$$$ (last 3' nucleoside missing) | 1.2
10 | RNA1{[moe](A)[sp].[moe](T)p.[moe](T)p.[moe](G)p.d(G)[sp].d(T)[sp].d([m5C])[sp].d(A)[sp].d(T)[sp].d([m5C])[sp].d(T)[sp].d([m5C])[sp].d(G)[sp].d(G)[sp].[moe](G)p.[moe](T)p.[moe](A)p.[moe](T)[sp].[moe](A)}$$$$ (last 3' nucleoside missing) | 4
11 | RNA1{[moe](A)[sp].[moe](T)p.[moe](T)p.[moe]([m5C])p.[moe](A)p.d(G)[sp].d(A)[sp].d(T)[sp].d(A)[sp].d([m5C])[sp].d(T)[sp].d(A)[sp].d(G)[sp].d(T)[sp].d(T)[sp].[moe](T)p.[moe](A)p.[moe]([m5C])[sp].[moe]([m5C])}$$$$ (last 3' nucleoside missing) | 2.8
12 | RNA1{[moe](A)[sp].[moe](T)p.[moe](T)p.[moe]([m5C])p.[moe](A)p.d(G)[sp].d([m5C])[sp].d(A)[sp].d([m5C])[sp].d(T)[sp].d(T)[sp].d(A)[sp].d(G)[sp].d(G)[sp].d(T)[sp].[moe](A)p.[moe](G)p.[moe](T)[sp].[moe](T)}$$$$ (last 3' nucleoside missing) | 3.3
13 | RNA1{[moe](A)[sp].[moe](T)p.[moe]([m5C])p.[moe](A)p.[moe](G)p.d(G)[sp].d(G)[sp].d([m5C])[sp].d(A)[sp].d([m5C])[sp].d(A)[sp].d(T)[sp].d(G)[sp].d(G)[sp].d(A)[sp].[moe](G)p.[moe](T)p.[moe](T)[sp].[moe](G)}$$$$ (last 3' nucleoside missing) | 6.8
14 | RNA1{[moe](A)[sp].[moe](T)p.[moe]([m5C])p.[moe](A)p.[moe](T)p.d(G)[sp].d(T)[sp].d(G)[sp].d([m5C])[sp].d(A)[sp].d(T)[sp].d(A)[sp].d([m5C])[sp].d([m5C])[sp].d([m5C])[sp].[moe](A)p.[moe](G)p.[moe](G)[sp].[moe](G)}$$$$ (last 3' nucleoside missing) | 0
15 | RNA1{[moe](A)[sp].[moe](T)p.[moe]([m5C])p.[moe](A)p.[moe]([m5C])p.d(A)[sp].d(T)[sp].d(T)[sp].d(A)[sp].d([m5C])[sp].d([m5C])[sp].d([m5C])[sp].d(A)[sp].d(T)[sp].d([m5C])[sp].[moe]([m5C])p.[moe](G)p.[moe](T)[sp].[moe](T)}$$$$ (last 3' nucleoside missing) | 0
16 | RNA1{[moe](A)[sp].[moe](T)p.[moe]([m5C])p.[moe](T)p.[moe](G)p.d(G)[sp].d(T)[sp].d([m5C])[sp].d(T)[sp].d(T)[sp].d(G)[sp].d(G)[sp].d(G)[sp].d(A)[sp].d(T)[sp].[moe](T)p.[moe](A)p.[moe](T)[sp].[moe](A)}$$$$ (last 3' nucleoside missing) | 4.8
17 | RNA1{[moe](A)[sp].[moe](T)p.[moe]([m5C])p.[moe](T)p.[moe]([m5C])p.d(G)[sp].d(G)[sp].d(G)[sp].d(T)[sp].d(A)[sp].d(T)[sp].d(A)[sp].d(T)[sp].d(A)[sp].d(A)[sp].[moe](A)p.[moe](T)p.[moe](T)[sp].[moe](A)}$$$$ (last 3' nucleoside missing) | 0
18 | RNA1{[moe](A)[sp].[moe]([m5C])[sp].[moe](A)[sp].[moe](T)[sp].[moe](T)[sp].d(T)[sp].d([m5C])[sp].d(T)[sp].d(T)[sp].d(A)[sp].d(G)[sp].d(T)[sp].d(T)[sp].d(G)[sp].d(A)[sp].[moe](A)[sp].[moe]([m5C])[sp].[moe](A)[sp].[moe](G)}$$$$ (last 3' nucleoside missing) | 6.5
19 | RNA1{[moe](A)[sp].[moe]([m5C])p.[moe](A)p.[moe](T)p.[moe](A)p.d([m5C])[sp].d(T)[sp].d(T)[sp].d(G)[sp].d(G)[sp].d(T)[sp].d(T)[sp].d(G)[sp].d([m5C])[sp].d(A)[sp].[moe](G)p.[moe](A)p.[moe]([m5C])[sp].[moe](G)}$$$$ (last 3' nucleoside missing) | 4.8
20 | RNA1{[moe](A)[sp].[moe]([m5C])p.[moe](A)p.[moe]([m5C])p.[moe](T)p.d(T)[sp].d(T)[sp].d([m5C])[sp].d(A)[sp].d(T)[sp].d([m5C])[sp].d(A)[sp].d(G)[sp].d(T)[sp].d(T)[sp].[moe](A)p.[moe](G)p.[moe](T)[sp].[moe]([m5C])}$$$$ (last 3' nucleoside missing) | 1
21 | RNA1{[moe](A)[sp].[moe]([m5C])p.[moe](G)p.[moe]([m5C])[sp].d(A)[sp].d(A)[sp].d(T)[sp].d(G)[sp].d(T)[sp].d(A)[sp].d(T)[sp].d([m5C])[sp].[moe](A)p.[moe](G)p.[moe](G)p.[moe]([m5C])[sp].[moe](A)}$$$$ (last 3' nucleoside missing) | 1
22 | RNA1{[moe](A)[sp].[moe]([m5C])p.[moe](G)p.[moe]([m5C])p.[moe](A)[sp].d(A)[sp].d(T)[sp].d(G)[sp].d(T)[sp].d(A)[sp].d(T)[sp].d([m5C])[sp].d(A)[sp].[moe](G)p.[moe](G)p.[moe]([m5C])[sp].[moe](A)}$$$$ (last 3' nucleoside missing) | 2.3
23 | RNA1{[moe](A)[sp].[moe]([m5C])p.[moe](G)p.[moe]([m5C])p.[moe](A)p.[moe](A)[sp].d(T)[sp].d(G)[sp].d(T)[sp].d(A)[sp].d(T)[sp].d([m5C])[sp].d(A)[sp].d(G)[sp].[moe](G)p.[moe]([m5C])[sp].[moe](A)}$$$$ (last 3' nucleoside missing) | 0
24 | RNA1{[moe](A)[sp].[moe]([m5C])p.[moe](T)p.[moe](A)p.[moe](T)p.d([m5C])[sp].d([m5C])[sp].d(T)[sp].d(G)[sp].d([m5C])[sp].d(A)[sp].d(T)[sp].d([m5C])[sp].d([m5C])[sp].d(G)[sp].[moe](A)p.[moe](G)p.[moe](G)[sp].[moe]([m5C])}$$$$ (last 3' nucleoside missing) | 1
25 | RNA1{[moe](A)[sp].[moe]([m5C])p.[moe](T)p.[moe](G)p.[moe](G)p.d([m5C])[sp].d(A)[sp].d(T)[sp].d(A)[sp].d(T)[sp].d(T)[sp].d([m5C])[sp].d([m5C])[sp].d(G)[sp].d(A)[sp].[moe](T)p.[moe](T)p.[moe](A)[sp].[moe](T)}$$$$ (last 3' nucleoside missing) | 3
26 | RNA1{[moe](A)[sp].[moe]([m5C])p.[moe](T)p.[moe](G)p.[moe](T)p.d(T)[sp].d(A)[sp].d([m5C])[sp].d([m5C])[sp].d(A)[sp].d(A)[sp].d(G)[sp].d(A)[sp].d([m5C])[sp].d(T)[sp].[moe](T)p.[moe]([m5C])p.[moe](A)[sp].[moe](G)}$$$$ (last 3' nucleoside missing) | 3.8
